Test results from patent publication US11725015B2, “Macrocyclic compound and uses thereof” (President and Fellows of Harvard College, priority 2017, dated 2023).

Assays:
[1] = system: human breast cancer cell line HCC1954; assay: HCC1954 growth inhibition assay; format: cell-based; conditions: 3 days incubation, CellTiter-Glo
Method: In this assay, the growth inhibitory activity of test compounds in a human breast cancer cell line HCC1954 was measured. HCC1954 cells were maintained in an RPMI-1640 medium modified to contain 2 mM L-glutamine, 10 mM HEPES, 1 mM sodium pyruvate, 4500 mg/L glucose, and 1500 mg/L sodium bicarbonate (ATCC 30-2001) containing 10% fetal bovine serum (FBS: Nichirei, 12D168), and penicillin and streptomycin in a 5% CO2 incubator (37° C.). To each well of a 96 well plate (Becton, Dickinson and Company, 353219), 75 μL of HCC1954 cell suspension adjusted to a concentration of 4×10^4 cells/mL with the culture medium was added, and the cells were incubated overnight in a 5% CO2 incubator (37° C.). On the next day, 25 μL of Compound (1) or Halichondrin B in three-fold dilution series suspended in the culture medium was added to each well, and the resultant was incubated for 3 days in a 5% CO2 incubator (37° C.). Then, cell viability was determined by CellTiter-Glo® Luminescent Cell Viability Assay (Promega) with EnVision 2103 Multilabel Reader (Perkin-Elmer, Wellesley, Mass.). Value of the wells containing cells without adding the test compounds was defined as 100% and the value of the wells containing no cells was defined as 0%. The concentration of the test compound necessary for inhibiting the cell growth by 50% (i.e., an IC50 value) was calculated, and shown in Table 3.

[2] = system: MES-SA (human uterine sarcoma) xenograft; assay: Antitumor effects in MES-SA soft tissue sarcoma xenograft model in mice as monotherapy; format: in vivo; conditions: 180 μg/kg intravenously on Day 1 and Day 8
Method: (§1) A human uterine sarcoma cell line MES-SA, which had been cultured in an RPMI-1640 containing 10% FBS, and penicillin-streptomycin, was adjusted to a concentration of 2×10^8 cells/mL with Hanks' Balanced Salt Solution to prepare a cell suspension, and the suspension was mixed with Geltrex® (Thermo Fisher Scientific Inc., #A1413202) in a ratio of 1:1 to prepare a cell suspension in a concentration of 1×10^8 cells/mL. The cell suspension was inoculated in a volume of 100 μL into a subcutaneous part of a right flank of nude mice, 6 weeks of ages (CAnN.Cg-Foxnlnu/CrlCrlj, female, Charles River Laboratories Japan Inc.). Six days after cell inoculation (Day 1), the shortest diameter and the longest diameter of a tumor in each mouse were measured by using an electronic digital caliper (Digimatic™ caliper, Mitutoyo Corporation), so as to calculate the volume of the tumor in accordance with the following calculation formulae: Tumor volume (mm^3)=Longest diameter (mm)×Shortest diameter (mm)×Shortest diameter (mm)/2 Relative tumor volume (RTV)=Tumor volume (day X)/Tumor volume (the first day)
On the basis of the volumes of tumors obtained on Day 1, the mice were grouped such that averages of the tumor volumes were substantially equal among the groups. The experiment was conducted on groups each consisting of 6 mice. […]

[3] = system: HT-1080 (human fibrosarcoma) xenograft; assay: Antitumor effects in HT-1080 soft tissue sarcoma xenograft model in mice as monotherapy; format: in vivo; conditions: 180 μg/kg intravenously on Day 1 and Day 8
Method: A human fibrosarcoma cell line HT-1080, which had been cultured in an E-MEM containing 10% FBS, NEAA and antibiotics was adjusted to a concentration of 3×10^7 cells/mL with medium to prepare a cell suspension. The cell suspension was inoculated in a volume of 100 μL into a subcutaneous part of a right flank of athymic mice (CAnN.Cg-Foxnlnu/CrlCrlj, female, 6 weeks old, Charles River Japan Inc.). Six days after cell inoculation (Day 1), the length and the width of a tumor in each mouse were measured by using an electronic digital caliper (Mitutoyo Corporation), so as to calculate the volume of the tumor in accordance with the following calculation formula: Tumor volume (mm^3)=Longest diameter (mm)×Shortest diameter (mm)×Shortest diameter (mm)/2 Relative tumor volume (RTV)=Tumor volume (day X)/Tumor volume (the first day)
On the basis of TV, the mice were randomly grouped (Day 1). Each group was consisted in six mice. Compound (1) was dissolved in DMSO and a solution was stored in the freezer before use. Compound (1) (180 μg/kg) was diluted with saline and intravenously injected on Day 1 and Day 8.

[4] = system: AN3CA (human endometrial cancer) xenograft; assay: Antitumor effects in AN3CA endometrial cancer xenograft model in mice as monotherapy; format: in vivo; conditions: 180 μg/kg intravenously on Day 1 and Day 8
Method: as §1, with “endometrial cancer” for “uterine sarcoma”, “AN3CA,” for “MES-SA,”, “E-MEM” for “RPMI-1640”, “1.4×10^8” for “2×10^8”, “7×10^7” for “1×10^8”, “Twelve” for “Six”
On the basis of the volumes of tumors obtained on Day 1, the mice were grouped such that averages of the tumor volumes were substantially equal among the groups. The experiment was conducted on groups each consisting of five mice. […]

## C=C1C[C@@H]2CC[C@@]34C[C@H]5O[C@H]6[C@@H](O3)[C@H]3O[C@H](CC[C@@H]3O[C@H]6C5O4)CC(=O)O[C@@H]3[C@@H](C)[C@@H]4O[C@@H]5C[C@]6(C[C@@H]7O[C@]8(C[C@H](C)[C@@H]9O[C@H](CN)[C@H](O)C[C@@H]9O8)C[C@H](C)[C@@H]7O6)O[C@@H]5C[C@@H]4O[C@H]3C[C@H]3O[C@@H](CC[C@@H]1O2)C[C@@H](C)C3=C [Compound (1)]
[1]
  IC50: 0.0668 nM
[2]
  antitumor activity: tumor growth delay
[3]
  antitumor activity: tumor regression
[4]
  antitumor activity: tumor regression
